Results published in patent US20230416299A1, “COMPOUND AND METHOD FOR THE TREATMENT AND DIAGNOSIS OF NEURODEGENERATIVE CONDITIONS” (Swansea University, priority 2013, published 2023).

Legend:
Lxrα = target: T1, Lxrα (Homo sapiens, UniProt Q13133); assay: Lxr-responsive luciferase reporter assay (Lxre + Lxrα) in SN4741 neural cells; assay type: cell-based, mouse; conditions: 10 μM, 24 h
T1 construct: expressed in transfected cells; host or cells: SN4741 mouse neuronal cell line
T1 sequence (Q13133 1-447): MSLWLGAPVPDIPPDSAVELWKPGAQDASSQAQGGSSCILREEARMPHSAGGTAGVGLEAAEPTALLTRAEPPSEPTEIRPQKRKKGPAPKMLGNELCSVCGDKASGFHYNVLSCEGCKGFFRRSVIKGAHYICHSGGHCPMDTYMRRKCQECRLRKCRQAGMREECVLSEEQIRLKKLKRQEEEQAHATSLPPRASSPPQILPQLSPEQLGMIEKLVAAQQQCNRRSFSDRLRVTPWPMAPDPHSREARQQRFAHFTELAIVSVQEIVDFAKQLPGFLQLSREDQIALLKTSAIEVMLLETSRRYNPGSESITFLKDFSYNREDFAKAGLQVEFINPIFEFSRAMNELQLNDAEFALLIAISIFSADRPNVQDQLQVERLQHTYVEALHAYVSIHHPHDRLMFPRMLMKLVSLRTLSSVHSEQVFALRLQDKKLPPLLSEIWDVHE
Description: (§1) Luciferase Reporter Assay.

Lxrβ = target: T2, Lxrβ (Homo sapiens, UniProt P55055); assay: Lxr-responsive luciferase reporter assay (Lxre + Lxrβ) in SN4741 neural cells; assay type: cell-based, mouse; conditions: for Lxrβ activation, luciferase activity: SN4741 cells, 10 μM, 24 h; for Lxrβ activational capacity in combination with 22R-HC: acid 10 μM + 22R-HC 10 μM
T2 construct: expressed in transfected cells; host or cells: SN4741 mouse neuronal cell line
T2 sequence (P55055 1-460): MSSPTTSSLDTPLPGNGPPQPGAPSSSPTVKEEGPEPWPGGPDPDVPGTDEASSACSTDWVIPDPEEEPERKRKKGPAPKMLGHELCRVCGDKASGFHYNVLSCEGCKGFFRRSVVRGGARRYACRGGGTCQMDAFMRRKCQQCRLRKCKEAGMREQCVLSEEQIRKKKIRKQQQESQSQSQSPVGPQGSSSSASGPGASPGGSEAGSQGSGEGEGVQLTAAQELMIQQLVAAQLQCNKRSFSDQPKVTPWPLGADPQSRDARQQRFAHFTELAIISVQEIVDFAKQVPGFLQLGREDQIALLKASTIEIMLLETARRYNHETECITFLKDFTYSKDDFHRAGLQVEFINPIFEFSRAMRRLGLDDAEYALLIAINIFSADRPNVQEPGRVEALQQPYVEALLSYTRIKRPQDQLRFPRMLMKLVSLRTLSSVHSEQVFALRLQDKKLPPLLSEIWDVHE
Description: as §1

[1] = system: Abca1, Abcg1 and Srebf1 transcript levels; assay: Quantitative PCR of Lxr target genes in SN4741 cells; assay type: cell-based, mouse; conditions: SN4741 cells treated 3 h
Protocol: (§2) Quantitative PCR. Total RNA was extracted from SN4741 cells and zebrafish treated with the compounds of interest using the RNeasy Mini Kit (Qiagen), 1 μg was treated with RQ1 RNase-free DNase (Promega) and reverse transcribed using Superscript II Reverse Transcriptase (Invitrogen) and random primers (Invitrogen) (RT+ reaction). Parallel reactions without reverse transcriptase enzyme were done as a control (RT− reaction), and Sybergreen real-time quantitative PCR assays were performed. Expression levels were obtained by normalization with the value of the housekeeping gene encoding actin obtained for every sample in parallel assays.

[2] = system: Islet-1:GFP transgenic zebrafish embryos; assay type: in vivo
Protocol: as §2
Zebrafish Strain and Mainrenance Zebrafish were raised on a 14/10 h day/night cycle and were kept at 28.5° C. Islet-1:GFP transgenic embryos were obtained via natural spawning and staged in hours or days post fertilization (hpf and dpf) according to Kimmel et al). Embryos older than 24 hpf were treated with 0.03% phenylthiourea (PTU) to inhibit pigmentation. MO injections were performed using splice site specific zebrafish 1xr MO. MO injected embryos were immediately dechorionated and transferred to a 96 well plate and exposed to dimethyl sulfoxide (DMSO) treated or ligand treated medium.
Compound Exposure. Islet-1:GFP embryos were collected by natural mating and immediately (at 1 cell stage) dechorionated and transferred to a 96 well plate. Each of the compounds tested were obtained as 10 mM stock and diluted in embryo medium to a final concentration of 10 μM, and 200 μL was added to each well. DMSO or propan-2-ol treated embryo medium was taken as control. Ligand solutions were replaced every 12 h with fresh ligand solution prepared in PTU treated embryo medium. Embryos were collected at 48 hpf, fixed for 4 h at room temperature with 4% paraformaldehyde and then washed and kept in PBST. Immunocytochemistry was performed using an anti-GFP antibody and fluorescence was viewed and photographed using a Zeiss Axioplan compound microscope and a Zeiss Axiocam digital camera.

[3] = system: mouse E11.5 brain primary cultures; assay: Mouse E11.5 brain primary cultures (Islet1+, active caspase 3+, BrdU, Nkx6.1 counts); assay type: cell-based; conditions: for Number of Islet1+ cells: 3 DIV; for Number of active caspase-3+ cells: 10 μM 3β,7α-diHCA, 3βH,7O-CA, 25-HC, low concentrations of 3β,7β-diHCA, 3β-HCA
Protocol: Primary Brain Cultures. Brains from E11.5 mice were manually dissected, plated on poly-D-lysine (150,000 cells/cm2) and grown in serum-free N2 media consisting of 1:1 mixture of F12 and DMEM with 10 ng/mL insulin, 100 μg/mL apo-transferrin, 100 μM putrescine, 20 nM progesterone, 30 nM selenium, 6 mg/mL glucose, and 1 mg/mL BSA. Cells were treated for 3 days in vitro (DIV) with the compounds of interest, fixed with 4% PFA and processed for staining using appropriate antibodies.
For BrdU analysis, cells were treated with BrdU one hour after plating and media was replaced with fresh medium after 16 h. After a further 2 days in culture, cells were treated for 30 min with 2N HCl and then immunocytochemistry was performed to evaluate the number of double BrdU+;Islet1+ cells (a measure of motor neuron neurogenesis). Hoechst staining was performed by permeabilizing cells with a 0.3% Triton-X 100/PBS solution for 5 min followed by incubation with Hoechst 33258 (Sigma) for 10 min.
Antibodies and Detection Procedures. Cells were fixed in 4% PFA, washed in PBS and blocked in 5% normal goat serum/PBS for 1 h at room temperature. Primary antibodies were diluted in PBS (pH 7.4), 0.3% Triton X-100, 1% BSA and incubations were carried out overnight at +4° C. or at room temperature for 2 h. The antibodies used were anti-: BrdU (1:400; Abeam), Islet-1 (1:100; Developmental Studies Hybridoma Bank), cleaved caspase-3 (Asp175) (1:100; Cell Signaling Technology), tyrosine hydroxylase (TH;1:1000; Pel-Freeze) GABA (1:1,000; Sigma), Brn3a (1:250; Millipore), Nkx6.1 (1:200; Novus Biologicals), choline acetyltransferase (ChAT; 1:500; Millipore) and appropriate secondary antibodies (Jackson ImmunoResearch or Alexa). Cells positive for the corresponding marker were counted directly at the microscope at a magnification of 20 x. Cells were counted in every well, in eight consecutive fields (going from one side of the well to the other, passing through the center), in three different wells per experiment and in three different experiments per condition. Random pictures of the wells were taken for every condition to document the result, and representative pictures were subsequently selected to represent the quantitative data. Photos were acquired with a Zeiss Axioplan microscope and a Hamamatsu camera C4742-95 using the Openlab software.

CC(CCC[C@@H](C)[C@H]1CC[C@H]2[C@@H]3[C@H](O)C=C4C[C@@H](O)CC[C@]4(C)[C@H]3CC[C@]12C)C(=O)O (stereo partly drawn) [3β,7α-diHCA, 3β,7α-dihydroxycholest-5-en-26-oic acid]
Lxrα activation, luciferase activity (Lxrα): have the ability to activate both Lxrs | Lxrβ activation, luciferase activity (Lxrβ): have the ability to activate both Lxrs | Lxrβ activational capacity in combination with 22R-HC (Lxrβ): No additive effect was observed | Abca1, Abcg1 and Srebf1 transcript levels [1]: increased transcripts levels to a similar degree as 22R-HC | Islet-1 mRNA and protein level (qPCR, western blot) ([2]; 10 μM): increase in the level of Islet-1 mRNA and protein | abca1 mRNA expression in vivo ([2]; 10 μM): enhanced expression of abca1 | Islet-GFP expression in cranial nerves ([2]; 10 μM, 48 hpf): increased Islet-GFP expression | Number of Islet1+ cells in cranial nerves (III, IV, V, VII, X) ([2]; 10 μM, 48 hpf): no significant effect on the number of Islet1+ cells | Islet-GFP levels after lxr morpholino (MO) injection ([2]; 10 μM, lxr MO vs control scrambled MO): abolished the in vivo increase in Islet-GFP levels | Number of Nkx6.1+ progenitor cells [3]: did not affect the number of Nkx6.1+ progenitor cells | Number of other midbrain neurons (TH+ dopamine, GABAergic, red nucleus) [3]: did not affect the number of other midbrain neurons | Reduction of neuronal cell death (activated caspase 3) induced by 2 μM 3β,7β-diHCA or 3β-HCA ([3]; 10 μM): reduced the neuronal cell death | Rescue of loss of Islet1+ cells induced by 2 μM 3β,7β-diHCA or 3β-HCA ([3]; 10 μM): reversed the loss of Islet 1+ cells | Effect on active caspase-3+ cells with GGPP ([3]; GGPP 10 μM, 3β,7β-diHCA, 3β-HCA at 2 μM): completely blocked by co-incubation with the Lxr inhibitor GGPP | Number of Islet1+ cells ([3]; wild type cultures): increased the number of Islet1+ oculomotor cells in the cultures | Concentration with significant difference (p<0.05) from vehicle in number of Islet1+ cells ([3]; wild type cultures, dose response): ≥ 5 µM | Effect on Islet1+ cells with Lxr antagonist GGPP ([3]; wt cultures, GGPP 10 μM): blocked by the Lxr antagonist GGPP | Number of active caspase-3+ cells ([3]; wt cultures): decreased the number of active caspase-3+ cells

CC(CCC[C@@H](C)[C@H]1CC[C@H]2[C@@H]3CC=C4C[C@@H](O)CC[C@]4(C)[C@H]3CC[C@]12C)C(=O)O (stereo partly drawn) [3β-HCA, 3β-hydroxycholest-5-en-26-oic acid]
Lxrα activation, luciferase activity (Lxrα): activates Lxr | Lxrβ activation, luciferase activity (Lxrβ): activates Lxr | Lxrβ activational capacity in combination with 22R-HC (Lxrβ): No additive effect was observed | Abca1, Abcg1 and Srebf1 transcript levels [1]: induced transcription, but to a lesser extent | Toxicity to zebrafish embryos ([2]; 10 μM in medium): deleterious toxic effect which impaired the survival of the fish | Number of Nkx6.1+ progenitor cells [3]: did not affect the number of Nkx6.1+ progenitor cells | Concentration at which toxicity is initiated (active caspase-3+ cells) ([3]; mouse, E11.5 mouse brain primary cultures, 3 days): 1000 nM | Number of Islet1+ cells ([3]; wild type cultures): caused the loss of Islet1+ cells in the cultures | Number of active caspase-3+ cells ([3]; wt cultures): increased the number of active caspase-3+ cells
